Data as given in patent publication US5130302A, “Boronated nucleoside, nucleotide and oligonucleotide compounds, compositions and methods for using same” (Boron Bilogicals, Inc., priority 1989, dated 1992).
Converted amounts (≈) assume the structure as drawn. Where two headings read alike, the source gives them in different places.

Key:
Hela-S = experiment: Cytotoxicity, Hela-S cervical carcinoma suspended; type: cell-based; conditions: Homo sapiens, read-out: ED50 (cytotoxicity), Hela-S
Experimental: 7. Hela-S, ATCC-CCL 2.2, cervical carcinoma suspended, S. Schreiber and N. Ikemoto, supra; T. Puck et al., J. Exp. Med. 103. 273 (1956) (grown in Joklik+5% FBS, Ham's F12 +5% FBS).
(§1) The cytotoxic screens were conducted according to NIH protocols, see E. Huang et al., J. Pharm. Sci. 61, 108 (1972), with 10^4 cells, growth medium, antibiotics and drugs from 0.5 to 100 μg/ml final concentration. For the L1210, Hela-S, amd Tmolt, (i.e. the suspended cells), the incubations were conducted in sterile test tubes in a final volume of 1 ml for 72 hr at 37° C. in a CO2 incubator. The cells on the third day were still in log growth phase. The number of cells/ml are determined using trypan blue exclusion and a hemocytometer. See, e.g., R. Geran, supra. For solid tumors there is plated out in wells 1×10^4 cells with 1 ml of medium+antibiotics and the other components of growth. When the controls have converged (≈95%) then the density of the cells is estimated and the ED50 values calculated.

[1] = Stability in aqueous medium by HPLC; type: physicochemical; conditions: for remaining at 168 h: period of 168 h, read-out: stable in aqueous medium; for stability in aqueous medium: in words
Experimental: By HPLC, compounds 3a, 3b, and 3d in aqueous medium (0.01 M TEAAc) are >94% stable over a period of 168 h. […], however, is >50% decomposed during this period.

[2] = tested on: Human glioma cell EH 118 MG; experiment: Cytotoxicity, human glioma cell EH 118 MG; type: cell-based; conditions: read-out: ED50 (cytotoxicity), Glioma
Experimental: 9. Human glioma cell EH 118 MG transformed stain of Rous sarcoma virus, J. Lutton et al., J. Biol. Chem. 254, 11181 (1979) (grown in DMEM-H+10% FCS).
as §1

P388 = experiment: Cytotoxicity, P388; type: cell-based; conditions: Mus musculus, P388; read-out: ED50 (cytotoxicity), P388
Experimental: as §1

[3] = tested on: SW480 human colorectal carcinoma; experiment: Cytotoxicity, colon adenocarcinoma SW480 human colorectal carcinoma; type: cell-based
Experimental: (§2) More specifically, the cytotoxic activity of the boron adducts of the present invention was tested on the following neoplastic cell lines:
3. Colon adenocarcinoma SW480 human colorectal carcinoma. A. Leibovitz et al., Cancer Res. 36, 4562 (1976) (grown in L15+10% FBS).
as §1

serum cholesterol levels = experiment: Antihyperlipidemic activity, serum cholesterol; type: in vivo, male CF1 mice; conditions: mice; for Hypolipidemic: Cholesterol Inhibition, % inhibition: 8 mg/kg/day, intraperitoneal for 16d
Experimental: (§3) Compounds to be tested were suspended in 1% aqueous carboxymethylcellulose,homogenized and administered to male CF1 mice (25 g) intraperitoneally for 16d. On days 9 and 16, blood was obtained by tail vein bleeding, and the serum was separated by centrifugation for three minutes. The serum cholesterol levels were determined by a modification of the Liebermann--Burchard reaction in accordance with known techniques. See A. Ness, et al., Clin. Chim. Acta 10, 229 (1964). Serum triglyceride levels were determined with a commercial kit, the Fisher Hycel Triglyceride Test Kit, for a different group of animals bled on day 16.

[4] = tested on: KB epidermoid oral nesopharnyx; experiment: Cytotoxicity, KB epidermoid oral nasopharynx; type: cell-based; conditions: Homo sapiens, read-out: ED50 (cytotoxicity), KB
Experimental: 6. KB epidermoid oral nesopharnyx. R. Geran, supra: H. Eagle, Proc. Soc. Expt.
Biol. 89, 362 (1955)(grown in EMEM +5% calf serum).
as §1

[5] = tested on: L1210 lymphoid leukemia cells; experiment: Cytotoxicity, L1210 lymphoid leukemia cells; type: cell-based; conditions: Mus musculus, read-out: ED50 (cytotoxicity), L1210
Experimental: as §2
1. L1210 lymphoid leukemia cells, R. Geran et al., Cancer Chemotherapy Reports 3, 7 (1972).(grown in RPMI+15% FBS+antibiotics).
as §1

[6] = tested on: Serum triglyceride levels; experiment: Antihyperlipidemic activity, serum triglyceride; type: in vivo, male CF1 mice; conditions: mice; for Hypolipidemic: Triglyceride Inhibition, % inhibition: 8 mg/kg/day, intraperitoneal, bled on day 16
Experimental: as §3

[7] = tested on: Lung bronchogenic MB-9812; experiment: Cytotoxicity, lung bronchogenic MB-9812; type: cell-based; conditions: read-out: ED50 (cytotoxicity), Lung Bronchogenic
Experimental: 4. Lung bronchogenic MB-9812, S. Aronson et al., Expt. Cell Res. 61, 1 (1970) (grown in EMEM+10% FBS+NEAA).
as §1

[8] = tested on: Tmolt acute lymphoblastic T cell leukemia; experiment: Cytotoxicity, Tmolt acute lymphoblastic T cell leukemia; type: cell-based; conditions: for IC50: T-cell, read-out: ED50 (cytotoxicity), Tmolt; for activity in T molt-3 screen: in words
Experimental: as §2
2. Tmolt^S acute lymphoblastic T cell leukemia, S. Schreiber and N. Ikemoto, Tett. Lett 29, 3211 (1988) (grown in RPMI - 1640+10% FBS).
as §1

inflammatory response = experiment: Anti-inflammatory activity, carrageenan-injected hind foot; type: in vivo, CF1 male mice; conditions: mice; for Antiinflammatory Activity, % inhibition: 8 mg/kg/day, intraperitoneal, 3 hours and 30 minutes prior to carrageenan
Experimental: CF1 male mice (~25 g) were administered test drugs at 5-40 mg/kg in 0.05% Tween 80--H2 O intraperitoneally 3 hours prior to and 30 minutes prior to the injection of 0.2 ml of 1% carrageenan in 0.9% saline into the plantar surface of the right hind foot. Saline was injected into the left hind foot, which serves as a base line. After 3 hours, both feet were excised at the tibiotarsal (ankle) joint according to standard procedures. See C. Winter et al., Proc. Soc. Expt. Biol Med. 544, 111 (1962); A. Roszkawski et al., J. Pharm. Exp. Ther. 179, 114 (1971). Control mice afforded a 78±3 mg increase in paw weight.

Human Osteosarcoma TE418 = experiment: Cytotoxicity, human osteosarcoma TE418; type: cell-based
Experimental: 5. Human Osteosarcoma TE418. H. Smith et al., Int. J. Cancer 17, 219 (1976) (grown in DMEM+10% FBS).
as §1

[9] = Homo sapiens, SW480; read-out: ED50 (cytotoxicity), Adeno Carcinoma SW480
[10] = Osteosarcoma TE418, read-out: ED50 (cytotoxicity), Osteo sarcoma

N#C[BH2-][n+]1cn([C@H]2C[C@H](O)[C@@H](CO)O2)c2nc[nH]c(=O)c21 [Compound 3b, 2'-Deoxyinosine-N^7-cyanoborane]
IC50 (Hela-S; Hela-S, 72 hr at 37° C.): 2.41 µg/mL (≈ 8.28 µM) | degraded at 168 h ([1]; 0.01 M TEAAc, 168 h, HPLC, read-out: decomposed in aqueous medium): > 50% | remaining at 168 h ([1]; 0.01 M TEAAc, HPLC): > 94% | IC50 ([2]; Glioma EH 118 MG): 8.49 µg/mL (≈ 29.2 µM) | IC50 (P388): 7.21 µg/mL (≈ 24.8 µM) | IC50 [3, 9]: 3.86 µg/mL (≈ 13.3 µM) | Hypolipidemic: Cholesterol Inhibition, % inhibition (serum cholesterol levels): 19% | IC50 [4]: 3.45 µg/mL (≈ 11.9 µM) | IC50 ([5]; L1210, 72 hr at 37° C.): 4 µg/mL (≈ 13.7 µM) | Hypolipidemic: Triglyceride Inhibition, % inhibition [6]: 30% | IC50 ([7]; Lung bronchogenic MB-9812): 4.93 µg/mL (≈ 16.9 µM) | IC50 ([8]; Tmolt, 72 hr at 37° C.): 1.73 µg/mL (≈ 5.94 µM) | Antiinflammatory Activity, % inhibition (inflammatory response): 25% | IC50 (Human Osteosarcoma TE418; [10]): 7.28 µg/mL (≈ 25 µM)

N#C[BH2-][n+]1cnc2c(ncn2[C@H]2C[C@H](O)[C@@H](CO)O2)c1N [Compound 3c, 2'-Deoxyadenosine-N1-cyanoborane]
IC50 (Hela-S; Hela-S, 72 hr at 37° C.): 2.35 µg/mL (≈ 8.1 µM) | stability in aqueous medium [1]: good stability | IC50 ([2]; Glioma EH 118 MG): 6.88 µg/mL (≈ 23.7 µM) | IC50 (P388): 5.96 µg/mL (≈ 20.5 µM) | IC50 [3, 9]: 2.82 µg/mL (≈ 9.72 µM) | activity in human colorectal adenocarcinoma screen ([3]; in words): potent activity | Hypolipidemic: Cholesterol Inhibition, % inhibition (serum cholesterol levels): 44% | IC50 [4]: 3.12 µg/mL (≈ 10.8 µM) | IC50 ([5]; L1210, 72 hr at 37° C.): 3.68 µg/mL (≈ 12.7 µM) | Hypolipidemic: Triglyceride Inhibition, % inhibition [6]: 37% | IC50 ([7]; Lung bronchogenic MB-9812): 5.26 µg/mL (≈ 18.1 µM) | IC50 ([8]; Tmolt, 72 hr at 37° C.): 1.36 µg/mL (≈ 4.69 µM) | activity in T molt-3 screen [8]: potent activity | Antiinflammatory Activity, % inhibition (inflammatory response): 22% | IC50 (Human Osteosarcoma TE418; [10]): 7.39 µg/mL (≈ 25.5 µM)

N#C[BH2-][n+]1c(N)ccn([C@H]2C[C@H](O)[C@@H](CO)O2)c1=O [Compound 3d, 2' Deoxycytidine-N3-cyanoborane]
IC50 (Hela-S; Hela-S, 72 hr at 37° C.): 3.37 µg/mL (≈ 12.7 µM) | remaining at 168 h ([1]; 0.01 M TEAAc, HPLC): > 94% | stability in aqueous medium [1]: good stability | IC50 ([2]; Glioma EH 118 MG): 4.39 µg/mL (≈ 16.5 µM) | IC50 (P388): 3.17 µg/mL (≈ 11.9 µM) | IC50 [3, 9]: 2.96 µg/mL (≈ 11.1 µM) | activity in human colorectal adenocarcinoma screen ([3]; in words): potent activity | Hypolipidemic: Cholesterol Inhibition, % inhibition (serum cholesterol levels): 38% | IC50 [4]: 5.46 µg/mL (≈ 20.5 µM) | IC50 ([5]; L1210, 72 hr at 37° C.): 2.61 µg/mL (≈ 9.81 µM) | Hypolipidemic: Triglyceride Inhibition, % inhibition [6]: 23% | IC50 ([7]; Lung bronchogenic MB-9812): 3.73 µg/mL (≈ 14 µM) | IC50 ([8]; Tmolt, 72 hr at 37° C.): 1.13 µg/mL (≈ 4.25 µM) | activity in T molt-3 screen [8]: potent activity | Antiinflammatory Activity, % inhibition (inflammatory response): 52% | IC50 (Human Osteosarcoma TE418; [10]): 4.63 µg/mL (≈ 17.4 µM)

CC(C)[Si](OC[C@H]1O[C@@H](n2ccc(N)[n+]([BH2-]C#N)c2=O)C[C@@H]1O)(C(C)C)C(C)C [Compound 4]
IC50 (Hela-S; HeLa, 72 h): 3.63 µg/mL (≈ 8.59 µM) | IC50 [2]: 3.43 µg/mL (≈ 8.12 µM) | IC50 ([3]; Homo sapiens, SW480, read-out: ED50 (cytotoxicity), Adeno Carcinoma SW480): 2.71 µg/mL (≈ 6.42 µM) | IC50 [4]: 4.07 µg/mL (≈ 9.64 µM) | IC50 ([5]; L1210, 72 h): 2.92 µg/mL (≈ 6.91 µM) | IC50 [7]: 5.58 µg/mL (≈ 13.2 µM) | IC50 ([8]; 72 h): 2.34 µg/mL (≈ 5.54 µM) | IC50 (Human Osteosarcoma TE418; read-out: ED50 (cytotoxicity), Osteo sarcoma): 6.62 µg/mL (≈ 15.7 µM)

CCOC(=O)C(C)(C)Oc1ccc(Cl)cc1 [clofibrate, reference compound]
Hypolipidemic: Cholesterol Inhibition, % inhibition (Standard) (serum cholesterol levels; 130 mg/kg/day): 13% | Hypolipidemic: Triglyceride Inhibition, % inhibition (Standard) ([6]; standard (clofibrate at 130 mg/kg/day)): 25%

CCCCC1C(=O)N(c2ccccc2)N(c2ccccc2)C1=O [phenylbutazone, reference compound]
Antiinflammatory Activity, % inhibition (Standard) (inflammatory response; standard, column head 8 mg/kg/day): 47%
